# Reference: ChEMBL document CHEMBL1138575, “Synthesis of alpha-amyrin derivatives and their in vivo antihyperglycemic activity” (2009)
# How the values were obtained:
# Assay type in all cases: functional
# Set-up in all cases: scale not given: the % may be the effect or the level left
# Rattus norvegicus [1] = experiment: Antihyperglycemic activity against sucrose-challenged streptozotocin-induced fasted albino Sprague-Dawley rat assessed as reduction in blood glucose at 100 mg/kg, po administered 30 mins before sucrose challenge measured after 5 hrs post sucrose dose
# Rattus norvegicus [2] = experiment: Antihyperglycemic activity against sucrose-challenged streptozotocin-induced fasted albino Sprague-Dawley rat assessed as reduction in blood glucose at 100 mg/kg, po administered 30 mins before sucrose challenge measured after 24 hrs post sucrose dose
# Rattus norvegicus [3] = experiment: Antihyperglycemic activity against fasted sucrose-loaded albino rat model assessed as reduction in blood glucose at 100 mg/kg, po administered 30 mins before sucrose challenge measured after 5 hrs post sucrose dose
# Rattus norvegicus [4] = experiment: Antihyperglycemic activity against fasted sucrose-loaded albino rat model assessed as reduction in blood glucose at 100 mg/kg, po administered 30 mins before sucrose challenge measured after 24 hrs post sucrose dose
Compound,Activity (Rattus norvegicus [1]) [%],Activity (Rattus norvegicus [2]) [%],Activity (Rattus norvegicus [3]) [%],Activity (Rattus norvegicus [4]) [%]
C[C@H]1[C@H](C)CC[C@]2(C)CC[C@]3(C)C(=CC[C@@H]4[C@@]5(C)CC[C@H](OC(=O)c6ccc([N+](=O)[O-])cc6)C(C)(C)[C@@H]5CC[C@]43C)[C@H]12,13.8,27.6,–,–
C[C@H]1[C@H](C)CC[C@]2(C)CC[C@]3(C)C(=CC[C@@H]4[C@@]5(C)CC[C@H](OC(=O)c6ccc7ccccc7n6)C(C)(C)[C@@H]5CC[C@]43C)[C@H]12,19.6,17.8,–,–
C[C@H]1[C@H](C)CC[C@]2(C)CC[C@]3(C)C(=CC[C@@H]4[C@@]5(C)CC[C@H](OC(=O)CCCC(=O)c6ccccc6)C(C)(C)[C@@H]5CC[C@]43C)[C@H]12,24,23.5,–,–
C[C@H]1[C@H](C)CC[C@]2(C)CC[C@]3(C)C(=CC[C@@H]4[C@@]5(C)CC[C@H](OC(=O)CCC(=O)O[C@H]6CC[C@]7(C)[C@H]8CC=C9[C@@H]%10[C@@H](C)[C@H](C)CC[C@]%10(C)CC[C@@]9(C)[C@]8(C)CC[C@H]7C6(C)C)C(C)(C)[C@@H]5CC[C@]43C)[C@H]12,24.3,15.6,–,–
CN(C)C(=N)NC(=N)N [METFORMIN],23.5,26.5,–,–
C/C=C(\C)C(=O)O[C@H]1CC[C@]2(C)[C@H]3CC=C4[C@@H]5[C@@H](C)[C@H](C)CC[C@]5(C)CC[C@@]4(C)[C@]3(C)CC[C@H]2C1(C)C,12.7,22.6,–,–
Cc1ccc(C)c(C(=O)O[C@H]2CC[C@]3(C)[C@H]4CC=C5[C@@H]6[C@@H](C)[C@H](C)CC[C@]6(C)CC[C@@]5(C)[C@]4(C)CC[C@H]3C2(C)C)c1,24.9,20.2,–,–
C[C@H]1[C@H](C)CC[C@]2(C)CC[C@]3(C)C(=CC[C@@H]4[C@@]5(C)CC[C@H](OC(=O)CNC(=O)c6ccccc6)C(C)(C)[C@@H]5CC[C@]43C)[C@H]12,3.15,12.1,–,–
CC(=O)O[C@H]1CC[C@]2(C)[C@H]3CC=C4[C@@H]5[C@@H](C)[C@H](C)CC[C@]5(C)CC[C@@]4(C)[C@]3(C)CC[C@H]2C1(C)C,18.4,17,–,–
C[C@H]1[C@H](C)CC[C@]2(C)CC[C@]3(C)C(=CC[C@@H]4[C@@]5(C)CC[C@H](OC(=O)c6ccc(Cl)cc6)C(C)(C)[C@@H]5CC[C@]43C)[C@H]12,22.1,25.6,–,–
C[C@H]1[C@H](C)CC[C@]2(C)CC[C@]3(C)C(=CC[C@@H]4[C@@]5(C)CC/C(=N\N(C(=S)Nc6ccccc6)c6ccc([N+](=O)[O-])cc6[N+](=O)[O-])C(C)(C)[C@@H]5CC[C@]43C)[C@H]12,–,–,1.2,7.35
C[C@H]1[C@H](C)CC[C@]2(C)CC[C@]3(C)C(=CC[C@@H]4[C@@]5(C)CC[C@H](OC(=O)c6ccccc6C(=O)O)C(C)(C)[C@@H]5CC[C@]43C)[C@H]12,11,16.5,–,–
COc1ccc(CC(=O)O[C@H]2CC[C@]3(C)[C@H]4CC=C5[C@@H]6[C@@H](C)[C@H](C)CC[C@]6(C)CC[C@@]5(C)[C@]4(C)CC[C@H]3C2(C)C)cc1,17.5,15.6,–,–
C[C@H]1[C@H](C)CC[C@]2(C)CC[C@]3(C)C(=CC[C@@H]4[C@@]5(C)CC[C@H](OC(=O)c6cccnc6)C(C)(C)[C@@H]5CC[C@]43C)[C@H]12,18.2,27.6,–,–
C[C@H]1[C@H](C)CC[C@]2(C)CC[C@]3(C)C(=CC[C@@H]4[C@@]5(C)CC[C@H](O)C(C)(C)[C@@H]5CC[C@]43C)[C@H]12,13.9,8.12,–,–
